In one assay the test system is COX II enzyme. The settings on record: in words, literature; cited from earlier work.
A further assay addresses COX II. In words: Assay for COX II activity (PGE2 ELISA, recombinant enzyme). The format is biochemical, human or murine. The settings on record: arachidonic acid (10 μM), pre-incubated 10-20 minutes, pH 8.0; read-out: COX II ID50. How it is done:
(§1) A 2.0 kb fragment containing the coding region of either human or murine COX-I or human or murine COX-II was cloned into a BamH1 site of the baculovirus transfer vector pVL1393 (Invitrogen) to generate the baculovirus transfer vectors for COX-I and COX-II in a manner similar to the method of D. R. O'Reilly et al (Baculovirus Expression Vectors: A Laboratory Manual (1992)). Recombinant baculoviruses were isolated by transfecting 4 μg of baculovirus transfer vector DNA into SF9 insect cells (2×10e8) along with 200 ng of linearized baculovirus plasmid DNA by the calcium phosphate method. See M. D. Summers and G. E. Smith, A Manual of Methods for Baculovirus Vectors and Insect Cell Culture Procedures. Texas Agric. Exp. Station Bull. 1555 (1987). Recombinant viruses were purified by three rounds of plaque purification and high titer (10E7-10E8 pfu/ml) stocks of virus were prepared. For large scale production, SF9 insect cells were infected in 10 liter fermentors (0.5×10^6 /ml) with the recombinant baculovirus stock such that the multiplicity of infection was 0.1. […]
(§2) COX activity was assayed as PGE2 formed/μg protein/time using an ELISA to detect the prostaglandin released. […] The PGE2 formed was measured by standard ELISA technology (Cayman Chemical).
(An ELISA detects its analyte on a solid surface through an enzyme-linked reagent.)

For another assay, the target named is COX I. In words: Assay for COX I activity (PGE2 ELISA, recombinant enzyme). The format is biochemical, human or murine. The following applies: arachidonic acid (10 μM), pre-incubated 10-20 minutes, pH 8.0; read-out: COX I ID50. As for the experimental part:
as §1, §2

Regarding `COc1ccc2cc(CC(=O)O)ccc2c1` [6-methoxy-2-napthylacetic acid], the “inhibition of the COX II enzyme” value with COX II enzyme is given as “selectively inhibit the COX II enzyme”.

For the compound `CS(=O)(=O)Nc1ccc([N+](=O)[O-])cc1OC1CCCCC1` [N-(2-cyclohexyloxy-4-nitrophenyl)methanesulfonamide], the “inhibition of the COX II enzyme” value with COX II enzyme is “inhibits the COX II enzyme”.

As to `CC1(C)C=C(c2ccc(F)cc2)C(c2ccc(S(C)(=O)=O)cc2)=C1` [Example 1, 1-Methylsulfonyl-4-[1,1-dimethyl-4-(4-fluorophenyl)cyclopenta-2,4-dien-3-yl]benzene], the results for the IC50 on COX II and at COX I were 50 nM and 3680 nM, respectively.

(Values after patent publication US5576339A, “Pyridyl substituted cyclopentadienes for the treatment of inflamation” (priority 1995, dated 1996).)
